# Reference: patent US20100240713A1, “AROMATIC AND HETEROAROMATIC COMPOUNDS USEFUL IN TREATING IRON DISORDERS” (XENON PHARMACEUTICALS INC., priority 2007, published 2010)
# Where a name gives a salt, the structure may show the parent alone.
# Biological target: T1, DMT1 (Homo sapiens, UniProt P49281)
# T1 sequence (P49281 1-568): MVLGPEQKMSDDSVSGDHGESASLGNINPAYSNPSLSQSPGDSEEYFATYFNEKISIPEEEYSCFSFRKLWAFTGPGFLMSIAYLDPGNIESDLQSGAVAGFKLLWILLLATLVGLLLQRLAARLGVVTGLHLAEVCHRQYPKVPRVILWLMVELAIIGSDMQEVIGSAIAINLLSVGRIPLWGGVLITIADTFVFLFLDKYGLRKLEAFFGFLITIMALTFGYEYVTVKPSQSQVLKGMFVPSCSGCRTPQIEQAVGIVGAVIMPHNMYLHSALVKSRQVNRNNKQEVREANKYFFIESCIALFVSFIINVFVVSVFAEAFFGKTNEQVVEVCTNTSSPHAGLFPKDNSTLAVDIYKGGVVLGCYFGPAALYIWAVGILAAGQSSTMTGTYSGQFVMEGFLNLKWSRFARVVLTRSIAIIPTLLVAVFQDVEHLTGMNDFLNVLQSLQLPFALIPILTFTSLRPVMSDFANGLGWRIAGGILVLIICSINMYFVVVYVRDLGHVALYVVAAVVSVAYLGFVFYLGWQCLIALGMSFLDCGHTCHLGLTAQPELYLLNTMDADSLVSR
# Experiment: DMT1 activity assay (IC50 activity level, Table 1)
# Type: cell-based
# Settings: inhibition of DMT1
# Description: This example discloses various in vitro assay for testing and profiling test agents against DMT1 stably expressed in cells of either an endogenous or recombinant origin. These assays can use stable cell lines overexpressing DMT1 or intestinal cells and intestinal tissue expressing endogenous DMT1. DMT1 function could also be assessed in other cell types that express DMT1. Of greatest relevance would be the erythrocytes (e.g. K562 cells) or hepatocytes (e.g. […]).
# DMT1 function can be assessed in a number of ways, including monitoring fluorescence changes of an iron fluorophore (e.g. calcein), monitoring uptake of radiolabelled iron (^55Fe or ^59Fe) (Picard et al., J. Biol. Chem., 2000, 275(46):35738-45 and Wetli et al., Chem. Biol. 2006 September; 13(9):965-72), or by assessing the current or transport of iron and other metals into the cells or tissues using standard electrophysiological techniques (Gunshin et al., Nature, 1997, 388(6641):482-8.).
# Variations of these assays involve alterations of incubation times, the iron status of the cells and tissues (which may be modulated by chemical chelators or by harvesting from iron deficient animals), the metal cation detected and the pH of the reaction can generally be made by conventional techniques known to those skilled in the art.
# The Example numbers provided in Table 1 correspond to the Examples herein: […]
row,SMILES,IC50 [nM]
1,"N=C(N)SCc1ccccc1CSC(=N)N [Example 3.15, (1,2-phenylene)bis(methylene)dicarbamimidothioate dihydrobromide]",≥ 1000
2,"N=C(N)SCc1ccc(CSC(=N)N)s1 [Example 3.9, thiophene-2,5-diylbis(methylene)dicarbamimidothioate dihydrochloride]",≥ 1000
3,"CC(C)(SC(=N)N)c1cccc(C(C)(C)SC(=N)N)c1 [Example 6, 2-{1-[3-(1-carbamimidoylsulfanyl-1-methylethyl)phenyl]-1-methylethyl}-isothiourea dihydrobromide]",≥ 1000
4,"N=C(N)SCc1nnc(CSC(=N)N)n1N [Example 3.7, (4-amino-4H-1,2,4-triazole-3,5-diyl)bis(methylene)dicarbamimidothioate dihydrochloride]",≥ 1000
5,"COc1cc(CSC(=N)N)cc(CSC(=N)N)c1 [Example 6.6, (5-methoxy-1,3-phenylene)bis(methylene)dicarbamimidothioate dihydrobromide]",≥ 1000
6,"N=C(N)SCc1cccc(CSC(=N)N)c1 [Example 3.2, 1,3-phenylenebis(methylene)dicarbamimidothioate dihydrobromide]",≥ 1000
7,"N=C(N)SCc1cccc(CSC(=N)N)n1 [Example 3.12, pyridine-2,6-diylbis(methylene)dicarbamimidothioate dihydrobromide]",≥ 1000
8,"N=C(N)Sc1cccc(SC(=N)N)c1 [Example 5, 1,3-phenylene dicarbamimidothioate dihydroiodide]",≥ 1000
9,"N=C(N)SCc1sc(CSC(=N)N)c(-c2ccccc2)c1-c1ccccc1 [Example 3.10, (3,4-diphenylthiophene-2,5-diyl)bis(methylene)dicarbamimidothioate dihydrobromide]",≥ 1000
10,"N=C(N)SCc1n[nH]c(CSC(=N)N)n1 [Example 3.8, (1H-1,2,4-triazole-3,5-diyl)bis(methylene)dicarbamimidothiodate dihydrochloride]",≥ 1000
11,"Cc1cc(C)c(CNC(=N)N)c(C)c1CNC(=N)N [Example 1, N-(3-guanidinomethyl-2,4,6-trimethylbenzyl)guanidine, bis(p-toluenesulfonate)]",≥ 1000
12,"N=C(N)SCc1cccc2cccc(CSC(=N)N)c12 [Example 3.13, naphthalene-1,8-diylbis(methylene)dicarbamimidothioate dihydrobromide]",≥ 1000
13,"Cc1cc(CSC(=N)N)c(O)c(CSC(=N)N)c1 [Example 6.2, (2-hydroxy-5-methyl-1,3-phenylene)bis(methylene)dicarbamimidothioate dihydrobromide]",≥ 1000
14,"CC(C)c1cc(C(C)C)c(CSC(=N)N)cc1CSC(=N)N [Example 3.1, (4,6-diisopropyl-1,3-phenylene)bis(methylene)dicarbamimidothioate dihydrobromide]",≥ 1000
15,"N#Cc1c(CSC(=N)N)cccc1CSC(=N)N [Example 3.14, (2-cyano-1,3-phenylene)bis(methylene)dicarbamimidothioate dihydrobromide]",≥ 1000
16,"COc1ccc(CSC(=N)N)cc1CSC(=N)N [Example 6.5, (4-methoxy-1,3-phenylene)bis(methylene)dicarbamimidothioate dihydrobromide]",≥ 1000
17,"N=C(N)SCc1ccc2ccccc2c1CSC(=N)N [Example 3.20, naphthalene-1,2-diylbis(methylene)dicarbamimidothioate dihydrobromide]",≥ 1000
18,"CCOC(=O)c1cc(C(=O)OCC)c(CSC(=N)N)cc1CSC(=N)N [Example 3.4, diethyl 4,6-bis(carbamimidoylthiomethyl)isophthalate dihydrobromide]",≥ 1000
19,"Cc1cc(CSC(=N)N)cc(CSC(=N)N)c1 [Example 3.3, (5-methyl-1,3-phenylene)bis(methylene)dicarbamimidothioate dihydrobromide]",≥ 1000
20,"Cc1cc(C)c(C(C)SC(=N)N)c(C)c1C(C)SC(=N)N (centres unmarked) [Example 6.1, 2-{1-[3-(1-carbamimidoylsulfanylethyl)-2,4,6-trimethylphenyl]ethyl}-isothiourea dihydrobromide]",100 to 1000
21,"N=C(N)SC(=O)c1sc(C(=O)SC(=N)N)c(Cl)c1Cl [Example 9, 2-(5-carbamimidoylsulfanecarbonyl-3,4-dichlorothiophene-2-carbonyl)isothiourea dihydrochloride]",≥ 1000
22,"COc1c(CSC(=N)N)cc(C)cc1CSC(=N)N [Example 3.18, (2-methoxy-5-methyl-1,3-phenylene)bis(methylene)dicarbamimidothioate dihydrobromide]",≥ 1000

# Results, then the compound that gave them:
row,IC50 [nM],SMILES
1,100 to 1000,"Cc1cc(C)c(CSC(=N)N)cc1CSC(=N)N [Example 3.16, (4,6-dimethyl-1,3-phenylene)bis(methylene)dicarbamimidothioate dihydrochloride]"
2,≥ 1000,"N=C(N)SCc1c(Cl)c(Cl)c(Cl)c(CSC(=N)N)c1Cl [Example 3.6, (2,4,5,6-tetrachloro-1,3-phenylene)bis(methylene)dicarbamimidothioate dihydrochloride]"
3,100 to 1000,"Cc1cc(C)c(CSC(=N)N)c(C)c1CSC(=N)N [Example 3, (2,4,6-trimethyl-1,3-phenylene)bis(methylene)dicarbamimidothioate dihydrochloride]"
4,100 to 1000,"Cc1c(CSC(=N)N)cccc1CSC(=N)N [Example 3.21, (2-methyl-1,3-phenylene)bis(methylene)dicarbamimidothioate dihydrobromide]"
5,≥ 1000,"Cc1c(C)c(CSC(=N)N)c(C)c(CSC(=N)N)c1C [Example 3.5, (2,4,5,6-tetramethyl-1,3-phenylene)bis(methylene)dicarbamimidothioate dihydrochloride]"
6,≥ 1000,"Cc1c(C)c(C)c(CSC(=N)N)c(CSC(=N)N)c1C [Example 3.22, (3,4,5,6-tetramethyl-1,2-phenylene)bis(methylene)dicarbamimidothioate dihydrobromide]"
7,≥ 1000,"Cc1c(CSC(=N)N)sc(CSC(=N)N)c1C [Example 6.3, (3,4-dimethylthiophene-2,5-diyl)bis(methylene)dicarbamimidothioate dihydrobromide]"
8,≥ 1000,"Cc1c(CSC(=N)N)sc2sc(CSC(=N)N)c(C)c12 [Example 6.4, (3,4-dimethylthieno[2,3-b]thiophene-2,5-diyl)bis(methylene)dicarbamimidothioate dihydrobromide]"
9,≥ 1000,"Cc1c(CSC(=N)N)c(C)c(CSC(=N)N)c(C)c1CSC(=N)N [Example 3.11, (2,4,6-trimethylbenzene-1,3,5-triyl)tris(methylene) tricarbamimidothioate trihydrobromide]"
10,100 to 1000,"Cc1c(O)c(C)c(CSC(=N)N)c(C)c1CSC(=N)N [Example 3.19, (5-hydroxy-2,4,6-trimethyl-1,3-phenylene)bis(methylene) dicarbamimidothioate dihydrochloride]"
11,≥ 1000,"Cc1nc(C)c(CSC(=N)N)c(C)c1CSC(=N)N [Example 8, (2,4,6-trimethylpyridine-3,5-diyl)bis(methylene)dicarbamimidothioate dihydrochloride]"
12,≥ 1000,"Cc1c(CSC(=N)N)cc(CSC(=N)N)c(C)c1Br [Example 3.17, (5-bromo-4,6-dimethyl-1,3-phenylene)bis(methylene) dicarbamimidothioate dihydrochloride]"

# Tested on: not given
# Experiment: not given
# Settings: not given
row,melting point,SMILES
1,196 to 200 °C,"N=C(N)SCc1n[nH]c(CSC(=N)N)n1 (as salt: hydrochloride) [Example 3.8, (1H-1,2,4-triazole-3,5-diyl)bis(methylene)dicarbamimidothiodate dihydrochloride]"
2,208 to 210 °C,"CC(C)c1cc(C(C)C)c(CSC(=N)N)cc1CSC(=N)N (as salt: hydrobromid) [Example 3.1, (4,6-diisopropyl-1,3-phenylene)bis(methylene)dicarbamimidothioate dihydrobromide]"
3,270 to 272 °C (dec.),"N#Cc1c(CSC(=N)N)cccc1CSC(=N)N (as salt: hydrobromid) [Example 3.14, (2-cyano-1,3-phenylene)bis(methylene)dicarbamimidothioate dihydrobromide]"
4,> 265 °C,"Cc1c(C)c(C)c(CSC(=N)N)c(CSC(=N)N)c1C (as salt: hydrobromid) [Example 3.22, (3,4,5,6-tetramethyl-1,2-phenylene)bis(methylene)dicarbamimidothioate dihydrobromide]"
